Assay results as given in the supplement of paper PMC10307832.

Key:
Assay in all cases: relative viability (nuclei count vs DMSO), 5 days (fraction); higher = more cells survive
NCI-H647 = system: NCI-H647
Summary of the method: (§1)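 Lung cancer cell lines in 1536-well plates were dosed by pin tool the day after seeding, either with one drug alone or with a fixed anchor-drug dose plus five library-drug doses (not always all listed) in √10 steps. After 5 days, cells were fixed and their nuclei stained in one step (final 0.05% Triton X-100, 1% formaldehyde, 1 ug/ml Hoechst), then counted on 4× images. Relative viability is the nuclei count in treated wells divided by that in vehicle wells. Values are medians of duplicate plates.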

LC-2-ad = system: LC-2-ad
Summary of the method: as §1

COR-L 105 = system: COR-L 105
Summary of the method: as §1

H3255 = system: H3255
Summary of the method: as §1

NCI-H520 = system: NCI-H520
Summary of the method: as §1

NCI-H522 = system: NCI-H522
Summary of the method: as §1

NCI-H650 = system: NCI-H650
Summary of the method: as §1

PC-14 = system: PC-14
Summary of the method: as §1

RERF-LC-KJ = system: RERF-LC-KJ
Summary of the method: as §1

NCI-H322M = system: NCI-H322M
Summary of the method: as §1

NCI-H2126 = system: NCI-H2126
Summary of the method: as §1

NCI-H2405 = system: NCI-H2405
Summary of the method: as §1

201T = system: 201T
Summary of the method: as §1

EPLC-272H = system: EPLC-272H
Summary of the method: as §1

NCI-H23 = system: NCI-H23
Summary of the method: as §1

NCI-H2347 = system: NCI-H2347
Summary of the method: as §1

NCI-H661 = system: NCI-H661
Summary of the method: as §1

ChaGo-K-1 = system: ChaGo-K-1
Summary of the method: as §1

HCC-78 = system: HCC-78
Summary of the method: as §1

NCI-H2087 = system: NCI-H2087
Summary of the method: as §1

NCI-H1915 = system: NCI-H1915
Summary of the method: as §1

NCI-H1666 = system: NCI-H1666
Summary of the method: as §1

LCLC-97TM1 = system: LCLC-97TM1
Summary of the method: as §1

HCC-827 = system: HCC-827
Summary of the method: as §1

Q: For `COc1cc(N2CCC(C(N)=O)CC2)ccc1Nc1nc(N)c(Cl)c(Nc2ccccc2S(=O)(=O)C(C)C)n1` [HG-5-88-01] + O=C(CCCCCCC(=O)Nc1ccccc1)NO [Vorinostat] (partner 1 µM), which relative viability (NCI-H647; first compound 0.04 µM) is on record?
A: 0.522

Q: And the relative viability (NCI-H647; first compound 0.1265 µM)?
A: 0.813

Q: What about the relative viability (NCI-H647; first compound 1.265 µM) of the same compound?
A: 0.774

Q: What about the relative viability (NCI-H647; first compound 4 µM) of the same compound?
A: 0.86

Q: And the relative viability (LC-2-ad; first compound 0.04 µM)?
A: 0.804

Q: What about the relative viability (LC-2-ad; first compound 0.1265 µM) of the same compound?
A: 0.75

Q: What about the relative viability (LC-2-ad; first compound 0.4 µM) of the same compound?
A: 0.745

Q: And the relative viability (LC-2-ad; first compound 1.265 µM)?
A: 0.674

Q: What about the relative viability (LC-2-ad; first compound 4 µM) of the same compound?
A: 0.579

Q: What about the relative viability (COR-L 105; first compound 0.04 µM) of the same compound?
A: 0.849

Q: What about the relative viability (COR-L 105; first compound 0.1265 µM) of the same compound?
A: 0.722

Q: And the relative viability (COR-L 105; first compound 0.4 µM)?
A: 0.847

Q: And the relative viability (COR-L 105; first compound 1.265 µM)?
A: 0.639

Q: And the relative viability (COR-L 105; first compound 4 µM)?
A: 0.59

Q: And the relative viability (H3255; first compound 0.04 µM)?
A: 0.77

Q: And the relative viability (H3255; first compound 0.1265 µM)?
A: 0.907

Q: And the relative viability (H3255; first compound 0.4 µM)?
A: 0.729

Q: What about the relative viability (H3255; first compound 4 µM) of the same compound?
A: 0.741

Q: And the relative viability (NCI-H520; first compound 0.04 µM)?
A: 0.747

Q: What about the relative viability (NCI-H520; first compound 0.1265 µM) of the same compound?
A: 0.601

Q: And the relative viability (NCI-H520; first compound 0.4 µM)?
A: 0.803

Q: And the relative viability (NCI-H520; first compound 1.265 µM)?
A: 0.79

Q: And the relative viability (NCI-H520; first compound 4 µM)?
A: 0.781

Q: What about the relative viability (NCI-H522; first compound 0.04 µM) of the same compound?
A: 0.923

Q: And the relative viability (NCI-H522; first compound 0.1265 µM)?
A: 0.855

Q: What about the relative viability (NCI-H522; first compound 0.4 µM) of the same compound?
A: 0.784

Q: And the relative viability (NCI-H522; first compound 1.265 µM)?
A: 0.667

Q: And the relative viability (NCI-H522; first compound 4 µM)?
A: 0.671

Q: What about the relative viability (NCI-H650; first compound 0.04 µM) of the same compound?
A: 0.409

Q: And the relative viability (NCI-H650; first compound 0.1265 µM)?
A: 0.402

Q: What about the relative viability (NCI-H650; first compound 0.4 µM) of the same compound?
A: 0.386

Q: What about the relative viability (NCI-H650; first compound 1.265 µM) of the same compound?
A: 0.424

Q: And the relative viability (NCI-H650; first compound 4 µM)?
A: 0.29

Q: What about the relative viability (PC-14; first compound 0.04 µM) of the same compound?
A: 0.813

Q: What about the relative viability (PC-14; first compound 0.1265 µM) of the same compound?
A: 0.759

Q: What about the relative viability (PC-14; first compound 0.4 µM) of the same compound?
A: 0.656

Q: What about the relative viability (PC-14; first compound 1.265 µM) of the same compound?
A: 0.261

Q: And the relative viability (PC-14; first compound 4 µM)?
A: 0.155

Q: What about the relative viability (RERF-LC-KJ; first compound 0.04 µM) of the same compound?
A: 0.73

Q: What about the relative viability (RERF-LC-KJ; first compound 0.1265 µM) of the same compound?
A: 0.703

Q: What about the relative viability (RERF-LC-KJ; first compound 0.4 µM) of the same compound?
A: 0.624

Q: What about the relative viability (RERF-LC-KJ; first compound 1.265 µM) of the same compound?
A: 0.691

Q: And the relative viability (RERF-LC-KJ; first compound 4 µM)?
A: 0.405

Q: And the relative viability (NCI-H322M; first compound 0.04 µM)?
A: 0.864

Q: And the relative viability (NCI-H322M; first compound 0.1265 µM)?
A: 0.809

Q: What about the relative viability (NCI-H322M; first compound 0.4 µM) of the same compound?
A: 0.782

Q: What about the relative viability (NCI-H322M; first compound 1.265 µM) of the same compound?
A: 0.668

Q: And the relative viability (NCI-H322M; first compound 4 µM)?
A: 0.706

Q: What about the relative viability (NCI-H2126; first compound 0.04 µM) of the same compound?
A: 0.653

Q: What about the relative viability (NCI-H2126; first compound 0.1265 µM) of the same compound?
A: 0.813

Q: And the relative viability (NCI-H2126; first compound 0.4 µM)?
A: 0.713

Q: What about the relative viability (NCI-H2126; first compound 1.265 µM) of the same compound?
A: 0.594

Q: What about the relative viability (NCI-H2126; first compound 4 µM) of the same compound?
A: 0.456

Q: And the relative viability (NCI-H2405; first compound 0.04 µM)?
A: 1.07

Q: What about the relative viability (NCI-H2405; first compound 0.1265 µM) of the same compound?
A: 1.06

Q: What about the relative viability (NCI-H2405; first compound 0.4 µM) of the same compound?
A: 0.895

Q: What about the relative viability (NCI-H2405; first compound 1.265 µM) of the same compound?
A: 1.03

Q: And the relative viability (NCI-H2405; first compound 4 µM)?
A: 1.02

Q: And the relative viability (201T; first compound 0.04 µM)?
A: 0.984

Q: What about the relative viability (201T; first compound 0.1265 µM) of the same compound?
A: 0.94

Q: What about the relative viability (201T; first compound 1.265 µM) of the same compound?
A: 0.883

Q: And the relative viability (201T; first compound 4 µM)?
A: 1.11

Q: And the relative viability (EPLC-272H; first compound 0.04 µM)?
A: 0.497

Q: And the relative viability (EPLC-272H; first compound 0.1265 µM)?
A: 0.606

Q: What about the relative viability (EPLC-272H; first compound 0.4 µM) of the same compound?
A: 0.6

Q: What about the relative viability (EPLC-272H; first compound 1.265 µM) of the same compound?
A: 0.503

Q: What about the relative viability (EPLC-272H; first compound 4 µM) of the same compound?
A: 0.116

Q: And the relative viability (NCI-H23; first compound 0.04 µM)?
A: 0.793

Q: And the relative viability (NCI-H23; first compound 0.1265 µM)?
A: 0.752

Q: And the relative viability (NCI-H23; first compound 0.4 µM)?
A: 0.609

Q: What about the relative viability (NCI-H23; first compound 1.265 µM) of the same compound?
A: 0.538

Q: What about the relative viability (NCI-H23; first compound 4 µM) of the same compound?
A: 0.307

Q: What about the relative viability (NCI-H2347; first compound 0.04 µM) of the same compound?
A: 0.52

Q: What about the relative viability (NCI-H2347; first compound 0.1265 µM) of the same compound?
A: 0.544

Q: And the relative viability (NCI-H2347; first compound 0.4 µM)?
A: 0.731

Q: What about the relative viability (NCI-H2347; first compound 1.265 µM) of the same compound?
A: 0.553

Q: What about the relative viability (NCI-H2347; first compound 4 µM) of the same compound?
A: 0.577

Q: And the relative viability (NCI-H661; first compound 0.04 µM)?
A: 0.793

Q: And the relative viability (NCI-H661; first compound 0.1265 µM)?
A: 0.791

Q: And the relative viability (NCI-H661; first compound 0.4 µM)?
A: 0.771

Q: And the relative viability (NCI-H661; first compound 1.265 µM)?
A: 0.761

Q: And the relative viability (NCI-H661; first compound 4 µM)?
A: 0.856

Q: And the relative viability (ChaGo-K-1; first compound 0.04 µM)?
A: 0.75

Q: What about the relative viability (ChaGo-K-1; first compound 0.1265 µM) of the same compound?
A: 0.71

Q: What about the relative viability (ChaGo-K-1; first compound 0.4 µM) of the same compound?
A: 0.737

Q: What about the relative viability (ChaGo-K-1; first compound 1.265 µM) of the same compound?
A: 0.786

Q: What about the relative viability (ChaGo-K-1; first compound 4 µM) of the same compound?
A: 0.589

Q: What about the relative viability (HCC-78; first compound 0.04 µM) of the same compound?
A: 0.467

Q: And the relative viability (HCC-78; first compound 0.1265 µM)?
A: 0.357

Q: What about the relative viability (HCC-78; first compound 0.4 µM) of the same compound?
A: 0.356

Q: What about the relative viability (HCC-78; first compound 1.265 µM) of the same compound?
A: 0.206

Q: And the relative viability (HCC-78; first compound 4 µM)?
A: 0.217

Q: And the relative viability (NCI-H2087; first compound 0.04 µM)?
A: 0.74

Q: And the relative viability (NCI-H2087; first compound 0.1265 µM)?
A: 0.692

Q: What about the relative viability (NCI-H2087; first compound 0.4 µM) of the same compound?
A: 0.592

Q: And the relative viability (NCI-H2087; first compound 1.265 µM)?
A: 0.928

Q: And the relative viability (NCI-H2087; first compound 4 µM)?
A: 0.76

Q: And the relative viability (NCI-H1915; first compound 0.04 µM)?
A: 0.476

Q: What about the relative viability (NCI-H1915; first compound 0.1265 µM) of the same compound?
A: 0.525

Q: What about the relative viability (NCI-H1915; first compound 0.4 µM) of the same compound?
A: 0.525

Q: What about the relative viability (NCI-H1915; first compound 1.265 µM) of the same compound?
A: 0.57

Q: What about the relative viability (NCI-H1915; first compound 4 µM) of the same compound?
A: 0.386

Q: And the relative viability (NCI-H1666; first compound 0.04 µM)?
A: 0.984

Q: What about the relative viability (NCI-H1666; first compound 0.1265 µM) of the same compound?
A: 1

Q: And the relative viability (NCI-H1666; first compound 0.4 µM)?
A: 0.975

Q: And the relative viability (NCI-H1666; first compound 1.265 µM)?
A: 0.92

Q: What about the relative viability (NCI-H1666; first compound 4 µM) of the same compound?
A: 0.828

Q: And the relative viability (LCLC-97TM1; first compound 0.04 µM)?
A: 0.75

Q: What about the relative viability (LCLC-97TM1; first compound 0.1265 µM) of the same compound?
A: 0.757

Q: And the relative viability (LCLC-97TM1; first compound 0.4 µM)?
A: 0.62

Q: And the relative viability (LCLC-97TM1; first compound 1.265 µM)?
A: 0.645

Q: What about the relative viability (LCLC-97TM1; first compound 4 µM) of the same compound?
A: 0.126

Q: And the relative viability (HCC-827; first compound 0.04 µM)?
A: 0.829

Q: And the relative viability (HCC-827; first compound 0.1265 µM)?
A: 0.807

Q: What about the relative viability (HCC-827; first compound 0.4 µM) of the same compound?
A: 0.87

Q: What about the relative viability (HCC-827; first compound 1.265 µM) of the same compound?
A: 0.335

Q: What about the relative viability (HCC-827; first compound 4 µM) of the same compound?
A: 0.235
